{"source": "patent US20250018030A1", "about": "“PHARMACEUTICAL COMPOSITION FOR PROMOTING CANCER IMMUNOTHERAPY AND METHOD FOR PROMOTING CANCER IMMUNOTHERAPY” (China Medical University, priority 2023, published 2025)", "key": {"Tc1 cells [1]": {"tested_on": "Tc1 cells", "assay": "Metabolic assays (Seahorse ECAR/OCR, mitochondrial pyruvate and acetyl CoA) in Tc1 cells", "type": "cell-based, Mouse", "procedure": "The real-time extracellular acidification rate (ECAR) and oxygen consumption rate (OCR) were measured using a Seahorse XF24 analyzer (Seahorse Bioscience), within XF Glycolysis Stress and XF Cell Mito Stress Test kits used to assess glycolysis and oxidative phosphorylation. 5×10^5 cells exposed to the indicated treatments were plated in an XF-24 microplate coated with Cell-Tak (Corning) one day before the assay. ECAR and OCR were measured after metabolic manipulations by the addition of oligomycin, carbonyl cyanide-p-trifluoromethoxy-phenylhydrazone (FCCP), 2-deoxyglucose (2-DG) and rotenone/anti-mycin A (R/A). Calculations were conducted with Agilent Seahorse Wave Software for Agilent Seahorse XF analyzers (Seahorse Bioscience). For isolation of mitochondria, Tc1 cells were frozen and thawed to weaken the membranes and resuspended in Reagent A of a mitochondria isolation kit (ab110170, Abcam), before being homogenized and centrifuged at 1,000×g for 10 minutes at 4° C. Supernatant was saved (SN #1) and the pellet resuspended in Reagent B. After homogenization and centrifugation, supernatant was saved (SN #2). SN #1 and SN #2 were mixed thoroughly and centrifuged at 12,000×g for 15 minutes at 4° C. The pellet was collected in Reagent C supplemented with protease inhibitors and was used for the pyruvate and acetyl COA assays. Briefly, the mitochondrial pyruvate and acetyl CoA levels in the Tc1 cells were assessed using a commercial Pyruvate Assay Kit (ab65342, Abcam) and PicoProbe Acetyl COA Assay Kit (ab87546, Abcam) according to the manufacturer's instructions."}, "PBMC of PDAC patients": {"tested_on": "PBMC of PDAC patients", "assay": "Ex vivo genipin treatment of PBMC of PDAC patients, flow cytometry", "type": "cell-based, human", "procedure": "(§1) Monoclonal antibodies were purchased from BD Biosciences or eBioscience. For intracellular cytokine staining (ICS), cells were first restimulated by PMA/ionomycin for 5 hours in the presence of GolgiStop (BD Biosciences), followed by surface epitope staining markers before being fixed/permeabilized (BD Cytofix/Cytoperm™) and stained with antibodies targeting intracellular antigens. Cells were finally fixed with 1.5% formaldehyde for 10 minutes at room temperature and analyzed on a FACSVerse flow cytometer (BD Bioscience). Data were analyzed using FlowJo software (Tree Star Inc.).\n(§2) PDAC human subject study was approved by the Research Ethics Committee of China Medical University & Hospital (CMUH109-REC2-148). 10 ml of fresh blood and 0.1-0.5 mm^3 of tumor mass were collected on the same day from patients who underwent surgical resection. Monocytes were isolated from the patients' peripheral blood mononuclear cell (PBMC) or tumor mass. Cells were resuspended in RPMI medium containing 10% FBS and seeded at a density of 2×10^5/well in a 12-well plate. Cells were treated with genipin (12.5 μM, 25 μM) and incubated overnight before staining for the flow cytometry analysis."}, "Tc17 cells": {"tested_on": "Tc17 cells", "assay": "Intracellular cytokine staining / flow cytometry of genipin-treated skewed Tc17 cells", "type": "cell-based, Mouse", "conditions": "FIG. 1E-1G", "procedure": "(§3) Mouse lymph nodes and spleens were harvested, and naïve CD4 or CD8 T cells isolated via magnetic bead separation (STEMCELL Technologies) and activated in α-CD3 (10 μg/ml) and α-CD28 (1 μg/ml) pre-coated 96-well plates. Skewing conditions were as follows: Th1 cells/Tc1 cells ([…] 10 μ/ml α-IL-4), Th2 cells/Tc2 cells (20 ng/ml IL-4 and 10 μ/ml α-IFN-γ), Th17 cells/Tc17 cells (20 ng/ml IL-6, 1.25 ng/ml […], 20 ng/ml IL-1β, 20 ng/ml IL-23, 10 μg/ml α-IFN-γ and 10 μg/ml α-IL-4), and Treg cells (5 ng/ml TGF-β, 10 μg/ml α-IFN-γ and 10 μg/ml α-IL-4) in the indicated medium. Cells were cultured for 4-5 days followed by treatment with genipin (3.125 μM, 6.25 μM, 12.5 μM) or DMSO for 12-16 hours.\nas §1"}, "Tc1 cells [2]": {"tested_on": "Tc1 cells", "assay": "Intracellular cytokine staining / flow cytometry of genipin-treated skewed Tc1 cells", "type": "cell-based, Mouse", "procedure": "as §3, §1"}, "tumors of PDAC patients": {"tested_on": "tumors of PDAC patients", "assay": "Ex vivo genipin treatment of tumors of PDAC patients, flow cytometry", "type": "cell-based, human", "procedure": "as §1, §2"}, "Th1 cells": {"tested_on": "Th1 cells", "assay": "Cytokine staining of genipin-treated skewed Th1 cells", "type": "cell-based, Mouse", "conditions": "data not shown", "procedure": "as §3, §1"}, "[3]": {"conditions": "genipin-treated Tc1 cells, data not shown"}}}
{"smiles": "COC(=O)C1=CO[C@@H](O)[C@@H]2C(CO)=CC[C@H]12", "note": "[genipin]", "values": [{"measurement": "Glycolysis readout, ECAR", "setting": "Tc1 cells [1]; genipin 12.5 μM, Seahorse XF24, FIG. 2E", "result": "no functional impact"}, {"measurement": "Oxidative phosphorylation, OCR", "setting": "Tc1 cells [1]; genipin 12.5 μM, Seahorse XF24, FIG. 2F", "result": "promoted oxidative phosphorylation"}, {"measurement": "Acetyl CoA level in the mitochondria", "setting": "Tc1 cells [1]; genipin-treated Tc1 cells, FIG. 2G", "result": "increased the level of acetyl CoA"}, {"measurement": "Mitochondrial pyruvate", "setting": "Tc1 cells [1]; genipin-treated Tc1 cells, FIG. 2H", "result": "parallel increase"}, {"measurement": "Acetyl CoA level in the cytosol", "setting": "Tc1 cells [1]; [3]", "result": "increased the level of acetyl CoA"}, {"measurement": "Cytosolic fraction of pyruvate", "setting": "Tc1 cells [1]; [3]", "result": "decreased"}, {"measurement": "Tc1 cells (IFN-γ-producing CD8+ T cells)", "setting": "PBMC of PDAC patients; genipin 12.5, 25 μM overnight, FIG. 8A-8B", "result": "increased Tc1 cells"}, {"measurement": "Th1 cells population (IFN-γ-producing CD4+ T cells)", "setting": "PBMC of PDAC patients; genipin overnight, FIG. 8E", "result": "no significant changes"}, {"measurement": "Th17 cells (IL-17-producing CD4+ T cells)", "setting": "PBMC of PDAC patients; genipin overnight, FIG. 8F", "result": "did not increase"}, {"measurement": "IFN-γ production in Tc17 cells", "setting": "Tc17 cells", "result": "promoted IFN-γ"}, {"measurement": "IL-17 expression in Tc17 cells", "setting": "Tc17 cells", "result": "without impacting IL-17 expression"}, {"measurement": "IL-12R expression in Tc1 cells", "setting": "Tc1 cells [2]; genipin 12.5 μM, FIG. 2O-2P", "result": "increased IL-12R expression"}, {"measurement": "IFN-γ production in Tc1 cells", "setting": "Tc1 cells [2]; genipin 3.125, 6.25, 12.5 μM, 12-16 hours, FIG. 1C-1D", "result": "promoted IFN-γ"}, {"measurement": "T-bet expression in IFN-γ+CD8+ T cell population of Tc1 cells", "setting": "Tc1 cells [2]; genipin-treated Tc1 cells, FIG. 1J", "result": "elevated the expression of T-bet"}, {"measurement": "Tc1 cells (IFN-γ-producing CD8+ T cells)", "setting": "tumors of PDAC patients; genipin 12.5, 25 μM overnight, FIG. 8C-8D", "result": "increased Tc1 cells"}, {"measurement": "Th1 cells population (IFN-γ-producing CD4+ T cells)", "setting": "tumors of PDAC patients; genipin overnight, FIG. 8G", "result": "no significant changes"}, {"measurement": "Th17 cells (IL-17-producing CD4+ T cells)", "setting": "tumors of PDAC patients; genipin overnight, FIG. 8H", "result": "did not increase"}, {"measurement": "IFN-γ in Th1 cells", "setting": "Th1 cells", "result": "increased IFN-γ"}]}
